Measurements taken from patent EP4603105A1, “PHARMACEUTICAL COMPOSITION CONTAINING CYCLIC COMPOUND HAVING SELECTIVE KRAS INHIBITORY EFFECT AGAINST HRAS AND NRAS” (CHUGAI SEIYAKU KABUSHIKI KAISHA, priority 2022, dated 2024).
*1 amine or outer side, *2 acyl side, *3 side chain or, on linkers, in order; H or OH if unused. Where a SMILES comes first, the peptide text is derived from it. Bridges are numbered along the chain shown (N, C = ends). [ ]: non-standard residue; d: D form. The star is where a group is joined. hPhe(3-Cl-4-CF3) = N[C@@H](CCc1ccc(C(F)(F)F)c(Cl)c1)C(=O)O; X1 = CCCCN([C@@H](Cc1ccc(C)cc1)C(=O)[*:2])[*:1]; NMeGly(cPent) = CN[C@H](C(=O)O)C1CCCC1; NMeD = CN[C@@H](CC(=O)O)C(=O)O; NMeL = CN[C@@H](CC(C)C)C(=O)O; Morpholide = C1CN(*)CCO1; NMeA = CN[C@@H](C)C(=O)O; Ac5c = NC1(C(=O)O)CCCC1; Aze = O=C(O)[C@@H]1CCN1; Sar = CNCC(=O)O

Key:
[1] = molecular target: GDP-bound NRAS wild-type protein (Homo sapiens, UniProt P01111); assay: Binding to NRAS by surface plasmon resonance (SPR), KD and KD ratio to KRAS
Sequence of GDP-bound NRAS wild-type protein (P01111 whole entry): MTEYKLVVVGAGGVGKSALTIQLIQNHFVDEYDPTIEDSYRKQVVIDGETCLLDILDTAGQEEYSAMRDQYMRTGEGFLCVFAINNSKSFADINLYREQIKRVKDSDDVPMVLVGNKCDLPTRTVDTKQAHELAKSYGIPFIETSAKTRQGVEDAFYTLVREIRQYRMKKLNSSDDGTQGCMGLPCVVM
How it was run: (§1)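 Running buffer contained 10 µM GDP and 10 mM MgCl2 to keep RAS in the GDP state, with 4% DMSO at pH 7.4. Compounds were flowed at 100 µL/min in 75 s steps of rising concentration over captured biotin-Avi RAS at 30°C. Sensorgrams were fitted 1:1 for KD.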

[2] = system: human lung cancer strain NCI-H441; assay type: cell-based
How it was run: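 Step one: dispense the test compound in serial DMSO dilutions. Step three: add the reagent and measure […].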

[3] = molecular target: HRAS wild-type protein (Homo sapiens, UniProt P01112); assay: Binding to HRAS by surface plasmon resonance (SPR), KD and KD ratio to KRAS
Sequence of HRAS wild-type protein (P01112 whole entry): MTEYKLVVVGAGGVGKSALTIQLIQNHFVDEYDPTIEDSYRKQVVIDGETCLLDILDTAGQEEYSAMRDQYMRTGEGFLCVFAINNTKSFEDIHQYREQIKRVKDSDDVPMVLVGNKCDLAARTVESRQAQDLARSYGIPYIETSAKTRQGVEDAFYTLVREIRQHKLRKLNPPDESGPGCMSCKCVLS
How it was run: as §1

[4] = molecular target: GDP-bound KRAS wild-type protein (Homo sapiens, UniProt P01116); assay: Binding to KRAS by surface plasmon resonance (SPR), dissociation constant KD
Sequence of GDP-bound KRAS wild-type protein (P01116 1-188 isoform P01116-2): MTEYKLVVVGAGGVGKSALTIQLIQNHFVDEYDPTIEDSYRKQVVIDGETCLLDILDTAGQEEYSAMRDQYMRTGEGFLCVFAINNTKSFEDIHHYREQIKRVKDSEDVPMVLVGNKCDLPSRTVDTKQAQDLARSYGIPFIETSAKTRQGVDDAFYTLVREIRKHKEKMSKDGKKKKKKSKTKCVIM
Description: Surface plasmon resonance was used to analyze the binding affinity of compounds for KRAS, NRAS, and HRAS. The apparatus used was Biacore 8K, 8K+, or T200 (GE Healthcare), and the running buffer used was HBS (10 mM HEPES-NaOH, 150 mM NaCl, pH 7.4) containing 1 mM DTT, 10 mM MgCl2, 0.01% Tween 20, 10 µM GDP, and 4% DMSO.
Biotinylated Avi-tag fusion KRAS, NRAS, and HRAS proteins were expressed in E. coli BL21 (DE3) strains, and after cells were homogenized, they were purified using Streptavidin Mutein Matrix and Superdex 75. After purification, GDP-loaded KRAS, NRAS, and HRAS proteins were immobilized on the surface of Sensor Chip CAP (Cytiva) coated with Biotin CAPture Reagent in an immobilization amount of about 100 to 300 RU. Binding of each compound was evaluated by the Single Cycle Kinetics method, and a running buffer or a compound solution was added to the RAS protein non-immobilized surface and the immobilized surface to obtain a binding response. The flow rate was set to 100 µL/min, and in the compound-adding cycle, compound solutions having different concentrations were intermittently added for 75 seconds each, starting from a low concentration. […] In the blank cycle, a running buffer was intermittently added and not the compound solution. The Biotin CAPture Reagent and RAS proteins were immobilized for each cycle, and at the end of each cycle, the sensor chip was regenerated by the regeneration solution appended to the Biotin CAPture Kit (Cytiva). Measurement was carried out at 30°C.
The resulting sensorgram was subjected to curve fitting based on a 1:1 binding model on Biacore Insight Evaluation Software or T200 Evaluation Software, and thereby the dissociation constant KD of each compound with respect to KRAS, NRAS, and HRAS was determined. […] Blank indicates a compound from which the KD value with respect to NRAS or HRAS was not obtained.

[5] = ratio of the KD value with respect to GDP-bound NRAS wild-type protein to the KD value with respect to KRAS
[6] = ratio of the KD value with respect to HRAS wild-type protein to the KD value with respect to KRAS
[7] = Single Cycle Kinetics, 1:1 binding model
[8] = ratio of KD with respect to GDP-bound NRAS wild-type protein to KD with respect to KRAS
[9] = ratio of KD with respect to HRAS wild-type protein to KD with respect to KRAS
[10] = ratio of KD value for GDP-bound NRAS wild-type protein to KD value for KRAS (SPR)
[11] = ratio of KD value for HRAS wild-type protein to KD value for KRAS (SPR)
[12] = ratio of KD for GDP-bound NRAS wild-type protein to KD for KRAS
[13] = ratio of KD for HRAS wild-type protein to KD for KRAS

## CC[C@H](C)[C@@H]1NC(=O)[C@H](CC(C)C)N(C)C(=O)C[C@@H](C(=O)N2CCOCC2)N(C)C(=O)[C@H](C2CCCC2)N(C)C(=O)[C@](C)(CC)NC(=O)[C@@H]2CCCN2C(=O)[C@H](CCc2cc(F)c(C(F)(F)F)c(F)c2)NC(=O)CN(C)C(=O)[C@H](Cc2ccc(C(F)(F)F)cc2)N2CCCCC[C@@H](C2=O)N(C)C(=O)CN(C)C1=O [PP0500]
[1]; [5]
  NRAS /KRAS: B (a compound having 3 or more and less than 10 is denoted as B)
[2]
  IC50: 963 nM
[3]; [6]
  HRAS /KRAS: B (a compound having 3 or more and less than 10 is denoted as B)
[4]; [7]
  Kd: 18 nM

## CCCCN1C(=O)[C@@H]2CCN2C(=O)[C@H](C)N(C)C(=O)[C@H]([C@@H](C)CC)NC(=O)[C@H](CC(C)C)N(C)C(=O)C[C@@H](C(=O)N2CCOCC2)N(C)C(=O)[C@H](C2CCCC2)N(C)C(=O)C2(CCCC2)NC(=O)[C@@H]2CCCN2C(=O)[C@H](CCc2ccc(C(F)(F)F)c(Cl)c2)NC(=O)CN(C)C(=O)[C@@H]1Cc1ccc(C)cc1 [PP0055] ([NMeL]I[NMeA][Aze][X1][Sar][hPhe(3-Cl-4-CF3)]P[Ac5c][NMeGly(cPent)][NMeD]-Morpholide; lactam N-11)
[2]
  IC50: 3.5 nM
[4]; 1:1 binding model
  Kd: 0.27 nM

## C=CCCCC[C@H]1C(=O)N[C@@H]([C@@H](C)CC)C(=O)N(C)CC(=O)N(C)[C@H]2CCCCCN(C2=O)[C@@H](Cc2ccc(C(F)(F)F)cc2)C(=O)N(C)CC(=O)N[C@@H](CCc2cc(F)c(C(F)(F)F)c(F)c2)C(=O)N2C[C@H](OCC)C[C@H]2C(=O)N[C@](C)(CC=C)C(=O)N(C)[C@@H](C2CCCC2)C(=O)N(C)[C@H](C(=O)N2CCOCC2)CC(=O)N1C [PP0881]
[2]
  IC50: 374 nM
[4]; Single Cycle Kinetics
  Kd: 5.5 nM

## CCO[C@@H]1C[C@H]2C(=O)NC3(CCC3)C(=O)N(C)[C@@H](C(CC)CC)C(=O)N(C)[C@H](C(=O)N(C)C)CC(=O)N(C)[C@@H](C)C(=O)N[C@@H]([C@@H](C)CC)C(=O)N(C)CC(=O)N(C)[C@H]3C/C=C\CCN(C3=O)[C@@H](Cc3ccc(C(F)(F)F)cc3)C(=O)N(C)CC(=O)N[C@@H](CCc3ccc(C(F)(F)F)c(OC)c3)C(=O)N2C1 [PP1206]
[1]; [8]
  NRAS /KRAS: AA (a compound having 20 or more is denoted as AA)
[3]; [9]
  HRAS /KRAS: A (a compound having 10 or more and less than 20 is denoted as A)
[4]; [7]
  Kd: 0.17 nM

## CC[C@H](C)[C@@H]1NC(=O)[C@H](CC(C)C)N(C)C(=O)C[C@@H](C(=O)N2CCOCC2)N(C)C(=O)[C@H](C2CCCC2)N(C)C(=O)C2(CCC2)NC(=O)[C@@H]2[C@@H](OCCC(F)(F)F)CCN2C(=O)[C@H](CCc2cc(F)c(C(F)(F)F)c(F)c2)NC(=O)CN(C)C(=O)[C@H](Cc2ccc(C(F)(F)F)cc2)N2CCCCC[C@@H](C2=O)N(C)C(=O)CN(C)C1=O [PP1008]
[2]
  IC50: 102 nM
[4]; Single Cycle Kinetics
  Kd: 1.1 nM

## CC[C@H](C)[C@@H]1NC(=O)[C@H](CC(C)C)N(C)C(=O)C[C@@H](C(=O)N2CCOCC2)N(C)C(=O)[C@H](C2CCCC2)N(C)C(=O)C2(CCC2)NC(=O)[C@@H]2[C@@H](O)CCN2C(=O)[C@H](CCc2cc(F)c(C(F)(F)F)c(F)c2)NC(=O)CN(C)C(=O)[C@H](Cc2ccc(C(F)(F)F)cc2)N2CCCCC[C@@H](C2=O)N(C)C(=O)CN(C)C1=O [PP0872]
[2]
  IC50: 2600 nM
[4]; Single Cycle Kinetics
  Kd: 1.7 nM

## CC[C@H](C)[C@@H]1NC(=O)[C@H](CC(C)C)N(C)C(=O)C[C@@H](C(=O)N2CCOCC2)N(C)C(=O)[C@H](C2CCCC2)N(C)C(=O)C2(CCC2)NC(=O)[C@@H]2C[C@@H](O)CN2C(=O)[C@H](CCc2cc(F)c(C(F)(F)F)c(F)c2)NC(=O)CN(C)C(=O)[C@H](Cc2ccc(C(F)(F)F)cc2)N2CCCCC[C@@H](C2=O)N(C)C(=O)CN(C)C1=O [PP0871]
[2]
  IC50: 438 nM
[4]; Single Cycle Kinetics
  Kd: 0.4 nM

## CC[C@H](C)[C@@H]1NC(=O)[C@H](CC(C)C)N(C)C(=O)C[C@@H](C(=O)N(C)C)N(CCC2CCCC2)C(=O)[C@H](C2CCCC2)N(C)C(=O)C2(CCCC2)NC(=O)[C@@H]2CCCN2C(=O)[C@H](CCc2ccc(C(F)(F)F)c(Cl)c2)NC(=O)CN(C)C(=O)[C@H](Cc2ccc(F)cc2)N2CCCCC[C@@H](C2=O)N(C)C(=O)CN(C)C1=O [PP0975]
[2]
  IC50: 1570 nM
[4]; Single Cycle Kinetics
  Kd: 8.9 nM

## CCC[C@H]1C(=O)N[C@@H]([C@@H](C)CC)C(=O)N(C)CC(=O)N(C)[C@H]2C/C=C\CCN(C2=O)[C@@H](Cc2ccc(C(F)(F)F)cc2)C(=O)N(C)CC(=O)N[C@@H](CCc2cc(F)c(C(F)(F)F)c(F)c2)C(=O)N(CC)CC(=O)NC2(CC(C)(C)C2)C(=O)N(C)[C@@H](C2CCCC2)C(=O)N(C)[C@H](C(=O)N(C)C)CC(=O)N1C [PP1777]
[1]; [10]
  NRAS /KRAS: A (a compound having 10 or more and less than 20 is denoted as A)
[2]
  IC50: 79.3 nM
[3]; [11]
  HRAS /KRAS: B (a compound having 3 or more and less than 10 is denoted as B)

## CCO[C@@H]1C[C@H]2C(=O)NC3(CC(C)(C)C3)C(=O)N(C)[C@@H](C3CCCC3)C(=O)N(C)[C@H](C(=O)N(C)CC)CC(=O)N(C)[C@@H](CC)C(=O)N[C@@H]([C@@H](C)CC)C(=O)N(C)CC(=O)N(C)[C@H]3C/C=C\CCN(C3=O)[C@@H](Cc3ccc(C)cc3)C(=O)N(C)CC(=O)N[C@@H](CCc3cc(F)c(C(F)(F)F)c(F)c3)C(=O)N2C1 [PP1886]
[1]; [10]
  NRAS /KRAS: A (a compound having 10 or more and less than 20 is denoted as A)
[2]
  IC50: 1.9 nM
[3]; [11]
  HRAS /KRAS: B (a compound having 3 or more and less than 10 is denoted as B)

## CCO[C@@H]1C[C@H]2C(=O)NC3(CCC3)C(=O)N(C)[C@@H](C3CCCC3)C(=O)N(C)[C@H](C(=O)N(C)CCOC)CC(=O)N(C)[C@@H](CC3CC3)C(=O)N[C@@H]([C@@H](C)CC)C(=O)N(C)CC(=O)N(C)[C@H]3C/C=C\CCN(C3=O)[C@@H](Cc3ccc(C(F)(F)F)cc3)C(=O)N(C)CC(=O)N[C@@H](CCc3cc(F)c(C(F)(F)F)c(F)c3)C(=O)N2C1 [PP1318]
[1]; [8]
  NRAS /KRAS: A (a compound having 10 or more and less than 20 is denoted as A)
[2]
  IC50: 11.5 nM
[3]; [9]
  HRAS /KRAS: A (a compound having 10 or more and less than 20 is denoted as A)

## C#CC[C@H]1C(=O)N[C@@H]([C@@H](C)CC)C(=O)N(C)CC(=O)N(C)[C@H]2C/C=C\CCN(C2=O)[C@@H](Cc2ccc(C(F)(F)F)cc2)C(=O)N(C)CC(=O)N[C@@H](CCc2ccc(C(F)(F)F)c(OC)c2)C(=O)N2CC[C@H]2C(=O)NC2(CCC2)C(=O)N(C)[C@@H](C2CCCC2)C(=O)N(C)[C@H](C(=O)N(C)C)CC(=O)N1C [PP2911]
[1]; [12]
  NRAS /KRAS: A (a compound having 10 or more and less than 20 is denoted as A)
[2]
  IC50: 64.8 nM
[3]; [13]
  HRAS /KRAS: B (a compound having 3 or more and less than 10 is denoted as B)

## CCO[C@@H]1C[C@H]2C(=O)N(C)C3(CC(C)(C)C3)C(=O)N(C)[C@@H](C3CCCC3)C(=O)N(C)[C@H](C(=O)N(C)C)CC(=O)N(C)[C@H]3CCC/C=C/c4ccc(cc4)C[C@@H](C(=O)N(C)CC(=O)N[C@@H](CCc4cc(F)c(C(F)(F)F)c(F)c4)C(=O)N2C1)N1CC/C=C\C[C@@H](C1=O)N(C)C(=O)CN(C)C(=O)[C@H]([C@@H](C)CC)NC3=O [PP3060]
[1]; [12]
  NRAS /KRAS: B (a compound having 3 or more and less than 10 is denoted as B)
[2]
  IC50: 2.7 nM
[3]; [13]
  HRAS /KRAS: B (a compound having 3 or more and less than 10 is denoted as B)

## CC[C@H](C)[C@@H]1NC(=O)[C@H](C)N(C)C(=O)C[C@@H](C(=O)N(C)C)N(C)C(=O)[C@H](C2CCCC2)N(C)C(=O)C2(CCC2)NC(=O)[C@@H]2CC(F)(F)CN2C(=O)[C@H](CCc2cc(F)c(C(F)(F)F)c(F)c2)NC(=O)CN(C)C(=O)[C@H](Cc2ccc(C(F)(F)F)cc2)N2CCCC[C@@H](C2=O)N(C)C(=O)CN(C)C1=O [PP0584]
[1]; [5]
  NRAS /KRAS: C (A compound having a KD ratio of 0.1 or more and less than 3 is denoted as C)
[2]
  IC50: 7 nM
[3]; [6]
  HRAS /KRAS: C (A compound having a KD ratio of 0.1 or more and less than 3 is denoted as C)
